What all share (assay type): in vivo
One assay has as its system ICR male mice. Nature of the assay: Thioglycollate-induced inflammation model. The note with it: peritoneal cavity, 96 h; 10 mg/kg subcutaneous at 0 h, 3 h and 16 hours. As for the experimental part:
3% Brewer's thioglycollate broth (Difco, Detroit, Mich.) was injected into the petitoneal cavity of ICR male mice, followed by subcutaneous administration of the test compounds at the same dose after 0 h, 3 h and 16 hours. After 96 h, the number of total elicited cells and MOMA2-positive cells in the peritoneal cavity was analyzed using an EPICS XL Beckman Coulter.

Another assay relates to apoE-deficient mice. In words: Apolipoprotein E-deficient mouse model of atherosclerosis. The note with it: 50 mg/kg as food admixture for 8 weeks, high-fat diet; percent of total cross-sectional wall area. As for the experimental part:
Apolipoprotein E (apoE) is a component of several plasma lipoproteins, including chylomicrons, VLDL, and HDL. Receptor-mediated catabolism of these lipoprotein particles is mediated through the interaction of apoE with the LDL receptor (LDLR) or with LDLR-related protein (LRP). […] The efficacy of the compounds of the present invention was also evaluated using this animal model.
Male, 4 week-old apoE-deficient mice were fed on high-fat diet (15% fat, 1.25% cholesterol). The test compound was administered as food admixture for 8 weeks. At 12 weeks old, the mice were fasted for 4 hours and then sacrificed under ether anesthesia. […]
To determine cross-sectional lesion areas, the hearts were embedded in OCT compound and sectioned at 10 μm using cryostat. The sections were stained with oil red O. Each section of the aortic valve was evaluated for oil red O staining by capturing images directly from a RGB camera attached to a light microscope; image analysis was performed with the IPAP-WIN software (Sumika Tekno, Japan). Five sections were examined for each animal, and the sum of the lesion areas was calculated and expressed as the percent of the total cross-sectional wall area. Total cholesterol was determined with a Determiner assay kit (Kyowa Medex, Japan).

Another assay has as its system male ICR mice. In words: Caerulein-induced pancreatitis. The note with it: 20 mg/kg orally after caerulein injection, then at 3 h and 6 h; blood after 15 h. As for the experimental part:
Caerulein was injected intraperitoneally to male ICR mice every 1 h for 6 h. The test compound was given orally immediately after the caerulein injection, and then again at 3 h and 6 h. After 15 h, the mice were sacrificed and their blood was collected and analyzed for serum amylase activity as a marker of pancreatitis.

On to `O=C(O)COc1ccc(NC(=O)NC(=O)c2ccc3c(c2)OCCO3)cc1Cl` [Compound 55, 2-(4-{[(2H,3H-Benzo[e]1,4-dioxan-6-ylcarbonylamino)carbonyl]amino}-2-chlorophenoxy)acetic acid], for which, in the assay on ICR male mice, the “MOMA2-positive Cells” value is on record as 10.1 ± 1.5 ×10^6 and the “Total Cells” value is 14.1 ± 1.6 ×10^6. Further, the “% Atherosclerotic Lesion (mean ± SD)” value in the assay with apoE-deficient mice was found to be 17.80 ± 3.43 %.

With `O=C(NC(=O)c1ccc2c(c1)OCCO2)Nc1ccc(C(=O)[O-])c(Cl)c1.[Na+]` [Compound 57, Sodium 4-{[(2H,3H-benzo[e]1,4-dioxan-6-ylcarbonylamino)carbonyl]amino}-2-chlorobenzoate], the “Serum Amylase Level (U, Caraway, mean ± SD)” value with male ICR mice is 551 ± 157 U, Caraway.

Take `O=C(NC(=O)c1ccc2c(c1)OCCO2)Nc1ccc(C(=O)[O-])cc1.[Na+]` [Compound 59, Sodium 4-{[(2H,3H-benzo[3,4-e]1,4-dioxin-6-ylcarbonylamino)carbonyl]amino}benzoate]: in the assay with ICR male mice, the “MOMA2-positive Cells” value is recorded as 13.2 ± 1.4 ×10^6 and the “Total Cells” value is on record as 17.3 ± 1.7 ×10^6. Moreover, the “% Atherosclerotic Lesion (mean ± SD)” value with apoE-deficient mice is on record as 21.08 ± 6.86%.
